Assay results as given in patent US5334619A, “Inhibition of postharvest fruit decay by 2-nonanone” (priority 1993, dated 1994).

How the values were obtained:
[1] = test system: strawberries (cv. `Ozark Beauty`); test: Fruit damage rating of inoculated strawberry fruit exposed to volatile compounds; design: species or system Fragaria ananassa, Duchesne; conditions: 0.4 μl/ml vapor, 10 days, 10° C.; mean, 0 = intact, undamaged fruit, 3 = whole fruit necrotic and watersoaked
Protocol: (§1) Untreated red raspberries (cv. `Heritage`) and strawberries (cv. `Ozark Beauty`) were harvested and used the same day. Berries were selected on the basis of uniform size, color, firmness, and absence of evidence of defects or diseases.
(§2) A bioassay system was developed to test the effects of the volatile compounds on fungal growth both on intact fruit and on V-8 juice medium. The apparatus consisted of 75 ml glass jars into which either fruit or sterilized V-8 juice medium (10 ml) were added. These jars were placed in 275 ml airtight glass jars with aluminum foil cap liners. The bottom of each 275 ml jar was fitted with a 5.5 cm filter paper disk (Whatman No. 1) for application of the appropriate amount of test compound. The total gas headspace in the larger jars after the addition of all components was 250 ml.
(§3) Red raspberries and strawberries were rinsed with sterile distilled water and allowed to dry before inoculation. The fruit was sprayed with the spore suspension to runoff. Single red raspberries or strawberries were placed in the 75 ml jars, and 100 μl each of a single test compound was added to the filter paper on the bottom of a 275 ml jar. The 275 ml jar was then sealed. Fruit were kept at 10° C. in the dark for 10 days then rated for development of fungi and for damage to the fruit due to the treatments. […]

rat = conditions: cited from earlier work
[2] = test system: composite spore suspension of A. alternata, B. cinerea and C. gloeosporioides on strawberries; test: Fungal growth on inoculated strawberry fruit exposed to volatile compounds; conditions: 0.4 μl/ml vapor, 10 days, 10° C.; mean, 0 = no fungi present, 3 = fruit completely covered by fungal mycelia
Protocol: (§4) Fungal cultures of A. alternata and B. cinerea were obtained from the Agricultural Research Service, NRRL Culture Collection in Peoria, Ill. […] An isolate of C. gloeosporioides pathogenic on blueberries was obtained from the USDA/ARS Cranberry and Blueberry Research Center, Chatsworth, N.J. All cultures were maintained at 24° C. and 95% relative humidity on V-8 juice agar supplemented with 0.3% CaCO3 and adjusted to pH 5.8. Spores of each fungus were removed from sporulating cultures by carefully brushing the surface of the media with a glass rod and suspending the spores in sterile water. The concentrations of spores in the suspensions were adjusted to concentrations of 10^6 to 10^7 spores/ml. These suspensions were mixed together to form a composite suspension which was used to inoculate all the fruit in a given experiment.
as §1
(§5) A bioassay system was developed to test the effects of the volatile compounds on fungal growth both on intact fruit and on V-8 juice medium. The apparatus consisted of 75 ml glass jars into which either fruit or sterilized V-8 juice medium (10 ml) were added. […]

B. cinerea [3] = test: Treatment of isolated cultures with 2-nonanone vapor; format: cell-based, Botrytis cinerea; conditions: 7 days, 10° C., 0 = no growth, 4 = media completely covered
Protocol: as §4, §2
(§6) The fungi assayed against included B. cinerea, C. gloeosporioides and A. alternata. The compound was bioassayed as a volatile using the apparatus described in Example 1 by placing 7 mm diameter plugs of mycelia from actively-growing 1 week-old cultures on V-8 juice media in the 75 ml jars, with the appropriate amount (0, 5, 10, 25 or 100 μl ) of compound applied to the filter paper on the bottom of the larger jar. Assuming complete volatilization, these amounts would produce a nonanone concentration within the headspace of 0.02, 0.04, 0.10, and 0.40 μL/ml, respectively. The sealed jars were then placed in a growth chamber in the dark at 10° C. for 7 days. Due to growth of fungi limited to the plug in many cases and the difficulty of accurately measuring the fungal growth in the jars, a rating system was developed as follows: 0, no growth of fungi, including on plug; 1, growth on plug only; 2, small amount of fungal growth on medium; 3, most of medium covered with fungal mycelia; and 4, all of medium covered. The treatment was replicated three times and the data were treated by statistical analysis of variance.

C. gloeosporioides [4] = test: as above; format: cell-based, Colletotrichum gloeosporioides; conditions: 7 days, 10° C., 0 = no growth, 4 = media completely covered
Protocol: as §4, §2, §6

A. alternata [5] = test: as above; format: cell-based, Alternaria alternata; conditions: 7 days, 10° C., 0 = no growth, 4 = media completely covered
Protocol: as §4, §2, §6

A. alternata [6] = test: Radial growth of cultures with 2-nonanone in the growth medium; format: cell-based; conditions: Alternaria alternata, read-out: Fungal Growth (% of control), A. alternata
Protocol: as §4, with “experiment. 2-Nonanone was assayed as a medium component by adding an appropriate amount to cooled V-8 juice media in 9.0 cm plastic petri dishes. Experiments were initiated by placing 7 mm plugs of mycelia in the center of the petri dishes. As the cultures were nearly circular, the radii (from the inoculum plug to one typical point on the growing margin) of the cultures were measured and expressed as a percentage of the control. The treatment was replicated five times and the data were treated by analysis of variance.” for “experiment.”

C. gloeosporioides [7] = test: as above; format: cell-based; conditions: Colletotrichum gloeosporioides, read-out: Fungal Growth (% of control), C. gloeosporioides
Protocol: as §4, with “experiment. 2-Nonanone was assayed as a medium component by adding an appropriate amount to cooled V-8 juice media in 9.0 cm plastic petri dishes. Experiments were initiated by placing 7 mm plugs of mycelia in the center of the petri dishes. As the cultures were nearly circular, the radii (from the inoculum plug to one typical point on the growing margin) of the cultures were measured and expressed as a percentage of the control. The treatment was replicated five times and the data were treated by analysis of variance.” for “experiment.”

B. cinerea [8] = test: as above; format: cell-based; conditions: Botrytis cinerea, read-out: Fungal Growth (% of control), B. cinerea
Protocol: as §4, with “experiment. 2-Nonanone was assayed as a medium component by adding an appropriate amount to cooled V-8 juice media in 9.0 cm plastic petri dishes. Experiments were initiated by placing 7 mm plugs of mycelia in the center of the petri dishes. As the cultures were nearly circular, the radii (from the inoculum plug to one typical point on the growing margin) of the cultures were measured and expressed as a percentage of the control. The treatment was replicated five times and the data were treated by analysis of variance.” for “experiment.”

[9] = test system: composite spore suspension of A. alternata, B. cinerea and C. gloeosporioides on red raspberries; test: Fungal growth on inoculated raspberry fruit exposed to volatile compounds; conditions: 0.4 μl/ml vapor, 10 days, 10° C.; mean, 0 = no fungi present, 3 = fruit completely covered by fungal mycelia
Protocol: as §4, §1, §5

[10] = test system: red raspberries (cv. `Heritage`); test: Fruit damage rating of inoculated raspberry fruit exposed to volatile compounds; design: species or system Rubus idaeus L.; conditions: 0.4 μl/ml vapor, 10 days, 10° C.; mean, 0 = intact, undamaged fruit, 3 = whole fruit necrotic and watersoaked
Protocol: as §1, §2, §3

CCCCCCCC(C)=O [2-Nonanone, 2-nonanone]
Fruit damage rating, Strawberry [1]: 1.7 | oral rat LD50 (rat): 3200 mg/kg | Fungal Rating, Strawberry [2]: 0.0 | Fungal Growth Rating, B. cinerea (B. cinerea [3]; vapor phase 0.02 μl/ml): 1.0 | Fungal Growth Rating, B. cinerea (B. cinerea [3]; vapor phase 0.04 μl/ml): 0.0 | Fungal Growth Rating, B. cinerea (B. cinerea [3]; vapor phase 0.10 μl/ml): 0.0 | Fungal Growth Rating, B. cinerea (B. cinerea [3]; vapor phase 0.40 μl/ml): 0.0 | Fungal Growth Rating, C. gloeosporioides (C. gloeosporioides [4]; vapor phase 0.02 μl/ml): 2.0 | Fungal Growth Rating, C. gloeosporioides (C. gloeosporioides [4]; vapor phase 0.04 μl/ml): 0.6 | Fungal Growth Rating, C. gloeosporioides (C. gloeosporioides [4]; vapor phase 0.10 μl/ml): 0.0 | Fungal Growth Rating, C. gloeosporioides (C. gloeosporioides [4]; vapor phase 0.40 μl/ml): 0.0 | Fungal Growth Rating, A. alternata (A. alternata [5]; vapor phase 0.02 μl/ml): 2.7 | Fungal Growth Rating, A. alternata (A. alternata [5]; vapor phase 0.04 μl/ml): 1.3 | Fungal Growth Rating, A. alternata (A. alternata [5]; vapor phase 0.10 μl/ml): 0.0 | Fungal Growth Rating, A. alternata (A. alternata [5]; vapor phase 0.40 μl/ml): 0.0 | activity at 0.01 % (A. alternata [6]; 0.01% in V-8 juice medium): 85.2% | activity at 0.1 % (A. alternata [6]; 0.10% in V-8 juice medium): 48.7% | activity at 1 % (A. alternata [6]; 1.00% in V-8 juice medium): 0% | activity at 0.01 % (C. gloeosporioides [7]; 0.01% in V-8 juice medium): 100% | activity at 0.1 % (C. gloeosporioides [7]; 0.10% in V-8 juice medium): 95.7% | activity at 1 % (C. gloeosporioides [7]; 1.00% in V-8 juice medium): 0% | activity at 0.01 % (B. cinerea [8]; 0.01% in V-8 juice medium): 100% | activity at 0.1 % (B. cinerea [8]; 0.10% in V-8 juice medium): 83% | activity at 1 % (B. cinerea [8]; 1.00% in V-8 juice medium): 0% | Fungal Rating, Raspberry [9]: 0.0 | Fruit damage rating, Raspberry [10]: 2.0
